Results reported in patent US8318792B2, “Therapeutic agent for amyotrophic lateral sclerosis” (Nippon Medical School Foundation, priority 2006, dated 2012).

Legend:
Format in all cases: in vivo, mouse
[1] = test system: G1H-G93A transgenic mice; test: Exercise tolerance test: extension reflex test; details: for Extension reflex test score: 5 mg/kg oral daily from 80th day (before onset), score 0-2, 5 mg/kg
Method: (§1) The following five kinds of exercise tolerance tests were conducted every fifth day from the 70th day after birth to evaluate the ability to exercise in the respective exercise tolerance tests. That is, the days for the exercise tolerance tests were every fifth days, such as the 70th day, 75th day, 80th day, 85th day and so on, after birth. The exercise tolerance tests were conducted throughout the survival period, and the post-mortem evaluation was based on the definitions of the following five kinds of exercise tolerance tests.
As for extension reflex, extension of the hindlimbs is normally observed when a mouse is suspended in the air by its tail.
The evaluation of extension reflex test of the mice was performed based on the following criteria: Score 0=Extension reflex is recognized in both of the hindlimbs; Score 1=Extension reflex is recognized only one hindlimb; and Score 2=Extension reflex is not recognized in both of the hindlimbs. The post-mortem evaluation of the extension reflex test is defined as score 2.

[2] = test system: G1H-G93A transgenic mice; test: Exercise tolerance test: footprint test; details: 5 mg/kg oral daily from 80th day (before onset), score 0-4
Method: as §1
Both hindlimbs of a mouse are dipped in a black ink bottle, and then the mouse is allowed to walk on white paper. The footprints of the two hindlimbs of the mouse after the walking are analyzed. […] The post-mortem evaluation of the footprint test is defined as score 4.

[3] = test system: G1H-G93A transgenic mice; test: Exercise tolerance test: rotarod test; details: for Rotarod test score: 5 mg/kg oral daily from 80th day (before onset), score 0-3
Method: as §1
The apparatus used in the Rotarod test (Rota Rod Treadmill type 7600, Ugo Basile Co., Milano, Italy) is a rotating axle having a diameter of 3.6 cm, and this rotating axle is set up so as to have 16 revolution per minute (one rotation: 3.75 seconds). The period for which a mouse can remain on a rotating axle without falling is measured. The evaluation of the rotarod test for the mouse was performed based on the following criteria: Score 0=The time exceeds 60 seconds; Score 1=The time is more than 30 seconds and 60 seconds or less; Score 2=The time is more than 4 seconds and 30 seconds or less; and Score 3=The time is 4 seconds or less. The post-mortem evaluation of the rotarod test is defined as score 3.

[4] = test system: G1H-G93A transgenic mice; test: Exercise tolerance test: beam balance test; details: 5 mg/kg oral daily from 80th day (before onset), score 0-2
Method: as §1
The apparatus used in the beam balance test is constructed by maintaining a wooden beam having a diameter of 1.5 cm horizontally, and installing platforms which serve as footholds, on the respective sides in a distance of 30 cm. A mouse is placed on the platform on one side, and the time taken by the mouse to cross over the beam which is 30 cm in length and to arrive at the platform on the opposite side is measured. The evaluation of the beam balance test for the mouse was performed based on the following criteria: Score 0=The time is 10 seconds or less; Score 1=The time is more than 10 seconds to 15 seconds; and Score 2=The time is more than 15 seconds, or the mouse falls down. The post-mortem evaluation of the beam balance test is defined as score 2.

[5] = from the 130th day to 140th day after birth

SMILES: CC(C)(C)COc1ccc(-n2cc(C(=O)O)cn2)cc1C#N [compound (a), 1-[3-cyano-4-(2,2-dimethylpropoxy)phenyl]-1H-pyrazole-4-carboxylic acid]
- Extension reflex test score ([1]; 70th day after birth): 0.0±0.0
- Extension reflex test score ([1]; 75th day after birth): 0.0±0.0
- Extension reflex test score ([1]; 80th day after birth): 0.0±0.0
- Extension reflex test score ([1]; 85th day after birth): 0.0±0.0
- Extension reflex test score ([1]; 90th day after birth): 0.0±0.0
- Extension reflex test score ([1]; 95th day after birth): 0.0±0.0
- Extension reflex test score ([1]; 100th day after birth): 0.0±0.0
- Extension reflex test score ([1]; 105th day after birth): 0.0±0.0
- effect in extension reflex test as compared to placebo group ([1]; 105th, 110th, 115th and 120th day, 5 mg/kg oral daily from 80th day after birth, Mann-Whitney's U test): significant effects
- Extension reflex test score ([1]; 110th day after birth): 0.1±0.3
- Extension reflex test score ([1]; 115th day after birth): 0.5±0.5
- Extension reflex test score ([1]; 120th day after birth): 0.9±0.7
- Extension reflex test score ([1]; 125th day after birth): 1.5±0.5
- Extension reflex test score ([1]; 130th day after birth): 1.9±0.3
- Extension reflex test score ([1]; 135th day after birth): 2.0±0.0
- Extension reflex test score ([1]; 140th day after birth): 2.0±0.0
- Footprint test score ([2]; 70th day after birth): 0.0±0.0
- Footprint test score ([2]; 75th day after birth): 0.0±0.0
- Footprint test score ([2]; 80th day after birth): 0.0±0.0
- Footprint test score ([2]; 85th day after birth): 0.0±0.0
- Footprint test score ([2]; 90th day after birth): 0.0±0.0
- Footprint test score ([2]; 95th day after birth): 0.0±0.0
- Footprint test score ([2]; 100th day after birth): 0.0±0.0
- Footprint test score ([2]; 105th day after birth): 0.0±0.0
- Footprint test score ([2]; 110th day after birth): 0.1±0.3
- Footprint test score ([2]; 115th day after birth): 0.6±0.7
- Footprint test score ([2]; 120th day after birth): 1.8±0.9
- Footprint test score ([2]; 125th day after birth): 2.8±0.4
- Footprint test score ([2]; 130th day after birth): 3.4±0.5
- Footprint test score ([2]; 135th day after birth): 3.9±0.3
- Footprint test score ([2]; 140th day after birth): 4.0±0.0
- Rotarod test score ([3]; 70th day after birth, 5 mg/kg): 0.0±0.0
- Rotarod test score ([3]; 75th day after birth, 5 mg/kg): 0.0±0.0
- Rotarod test score ([3]; 80th day after birth, 5 mg/kg): 0.0±0.0
- Rotarod test score ([3]; 85th day after birth, 5 mg/kg): 0.0±0.0
- Rotarod test score ([3]; 90th day after birth, 5 mg/kg): 0.0±0.0
- Rotarod test score ([3]; 95th day after birth, 5 mg/kg): 0.0±0.0
- Rotarod test score ([3]; 100th day after birth, 5 mg/kg): 0.0±0.0
- Rotarod test score ([3]; 105th day after birth, 5 mg/kg): 0.0±0.0
- effect in rotarod test as compared to placebo group ([3]; 105th, 110th and 115th day, 5 mg/kg oral daily from 80th day after birth, Mann-Whitney's U test): significant effects
- Rotarod test score ([3]; 110th day after birth, 5 mg/kg): 0.3±0.7
- Rotarod test score ([3]; 115th day after birth, 5 mg/kg): 1.2±1.3
- Rotarod test score ([3]; 120th day after birth, 5 mg/kg): 2.2±0.9
- Rotarod test score ([3]; 125th day after birth, 5 mg/kg): 2.7±0.5
- Rotarod test score ([3]; 130th day after birth): 3.0 ± 0.0
- Rotarod test score ([3]; 135th day after birth): 3.0 ± 0.0
- Rotarod test score ([3]; 140th day after birth): 3.0 ± 0.0
- Rotarod test score [3, 5]: 3.0±0.0
- Beam balance test score ([4]; 70th day after birth, 5 mg/kg): 0.0±0.0
- Beam balance test score ([4]; 75th day after birth, 5 mg/kg): 0.0±0.0
- Beam balance test score ([4]; 80th day after birth, 5 mg/kg): 0.0±0.0
- Beam balance test score ([4]; 85th day after birth, 5 mg/kg): 0.0±0.0
- Beam balance test score ([4]; 90th day after birth, 5 mg/kg): 0.0±0.0
- Beam balance test score ([4]; 95th day after birth, 5 mg/kg): 0.0±0.0
- Beam balance test score ([4]; 100th day after birth, 5 mg/kg): 0.0±0.0
- Beam balance test score ([4]; 105th day after birth, 5 mg/kg): 0.0±0.0
- Beam balance test score ([4]; 110th day after birth, 5 mg/kg): 0.1±0.3
- Beam balance test score ([4]; 115th day after birth, 5 mg/kg): 0.7±0.8
- Beam balance test score ([4]; 120th day after birth, 5 mg/kg): 1.2±0.9
- Beam balance test score ([4]; 125th day after birth, 5 mg/kg): 1.7±0.5
- Beam balance test score ([4]; 130th day after birth): 2.0 ± 0.0
- Beam balance test score ([4]; 135th day after birth): 2.0 ± 0.0
- Beam balance test score ([4]; 140th day after birth): 2.0 ± 0.0
- Beam balance test score [4, 5]: 2.0±0.0
